Experimental data taken from patent US11566007B2, “Ras inhibitors” (Revolution Medicines, Inc., priority 2019, dated 2023).
Where two headings read alike, the source gives them in different places.

Assays:
KRAS G12S = KRAS G12S (Homo sapiens (Human), UniProt P01116+P62937, G12S); assay: Ras-Raf (BRAF RBD) disruption / FRET / MOA assay, KRAS G12S; assay type: biochemical; settings: Ras-Raf disruption/FRET/MOA assay; class symbols; read-out: KRAS G12S FRET data IC50
Procedure, shortened: (§1)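 Ternary complex formation (Ras–compound–cyclophilin A) displacing BRAF RBD, monitored by TR-FRET. Three hours at 25° C with compound (top 30 μM final), then 1.5 h with the labelled antibodies. Lower ratio than DMSO indicates disruption; IC50 reported.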

K-Ras G13C = K-Ras G13C (Homo sapiens (Human), UniProt P01116+P62937, G13C); assay: Ras-Raf (BRAF RBD) disruption / FRET / MOA assay, KRAS G13C; assay type: biochemical; settings: KRAS G13C; Ras-Raf disruption/FRET/MOA assay; read-out: IC50* KRAS G13C FRET data
Chain of K-Ras G13C (P01116-2 other isoform, or with tags, fused parts or gaps G13C): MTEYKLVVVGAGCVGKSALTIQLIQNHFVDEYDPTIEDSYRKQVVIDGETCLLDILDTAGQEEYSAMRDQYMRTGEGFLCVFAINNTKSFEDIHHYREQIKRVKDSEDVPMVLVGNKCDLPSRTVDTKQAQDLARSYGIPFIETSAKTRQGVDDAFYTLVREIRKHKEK
Chain of K-Ras G13C (P62937 whole entry): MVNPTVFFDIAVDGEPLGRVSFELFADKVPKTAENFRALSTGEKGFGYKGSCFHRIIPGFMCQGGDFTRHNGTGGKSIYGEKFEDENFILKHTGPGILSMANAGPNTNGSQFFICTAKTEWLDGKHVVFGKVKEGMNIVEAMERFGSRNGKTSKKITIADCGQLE
Procedure, shortened: as §1

K-Ras G12C = K-Ras G12C (Homo sapiens (Human), UniProt P01116+P62937, G12C); assay: Ras-Raf (BRAF RBD) disruption / FRET / MOA assay, KRAS G12C; assay type: biochemical; settings: KRAS G12C; Ras-Raf disruption/FRET/MOA assay; read-out: IC50* KRAS G12C FRET data
Chain of K-Ras G12C (P01116-2 other isoform, or with tags, fused parts or gaps G12C): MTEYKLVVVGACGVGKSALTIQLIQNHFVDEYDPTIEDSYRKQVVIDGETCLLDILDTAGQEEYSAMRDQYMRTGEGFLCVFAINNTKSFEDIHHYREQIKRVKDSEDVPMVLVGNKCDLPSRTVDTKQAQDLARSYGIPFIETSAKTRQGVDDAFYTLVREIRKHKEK
Chain of K-Ras G12C (P62937 whole entry): as the sequence (P62937 whole entry) above
Procedure, shortened: as §1

KRAS G12V = KRAS G12V (Homo sapiens (Human), UniProt P01116+P62937, G12V); assay: Ras-Raf (BRAF RBD) disruption / FRET / MOA assay, KRAS G12V; assay type: biochemical; settings: read-out: IC50* KRAS G12V FRET data
Chain of KRAS G12V (P01116-2 other isoform, or with tags, fused parts or gaps G12V): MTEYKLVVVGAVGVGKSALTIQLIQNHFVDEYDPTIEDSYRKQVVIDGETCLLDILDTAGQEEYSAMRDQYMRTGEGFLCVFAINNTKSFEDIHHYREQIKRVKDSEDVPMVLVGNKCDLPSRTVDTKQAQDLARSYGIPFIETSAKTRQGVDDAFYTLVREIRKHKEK
Chain of KRAS G12V (P62937 whole entry): as the sequence (P62937 whole entry) above
Procedure, shortened: as §1

KRAS G12D = KRAS G12D (Homo sapiens (Human), UniProt P01116+P62937, G12D); assay: Ras-Raf (BRAF RBD) disruption / FRET / MOA assay, KRAS G12D; assay type: biochemical; settings: Ras-Raf disruption/FRET/MOA assay; class symbols; read-out: KRAS G12D FRET data IC50
Chain of KRAS G12D (P01116-2 other isoform, or with tags, fused parts or gaps G12D): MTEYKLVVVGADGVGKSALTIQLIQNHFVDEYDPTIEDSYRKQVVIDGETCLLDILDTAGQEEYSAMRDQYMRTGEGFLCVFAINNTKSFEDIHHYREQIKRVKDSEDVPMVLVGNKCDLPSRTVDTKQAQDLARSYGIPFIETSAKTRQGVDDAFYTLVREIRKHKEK
Chain of KRAS G12D (P62937 whole entry): as the sequence (P62937 whole entry) above
Procedure, shortened: as §1

NRAS G12C = NRAS G12C (Homo sapiens (Human), UniProt P01111+P62937, G12C); assay: Ras-Raf (BRAF RBD) disruption / FRET / MOA assay, NRAS G12C; assay type: biochemical; settings: read-out: IC50* NRAS G12C FRET data
Chain of NRAS G12C (P01111 whole entry G12C): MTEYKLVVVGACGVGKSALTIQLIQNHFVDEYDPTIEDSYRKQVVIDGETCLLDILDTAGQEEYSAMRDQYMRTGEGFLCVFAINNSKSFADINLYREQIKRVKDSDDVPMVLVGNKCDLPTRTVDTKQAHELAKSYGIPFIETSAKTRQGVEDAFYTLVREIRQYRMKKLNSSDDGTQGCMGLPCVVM
Chain of NRAS G12C (P62937 whole entry): as the sequence (P62937 whole entry) above
Procedure, shortened: as §1

[1] = test system: NCI-H358 cells (K-Ras G12C); assay: Potency assay: pERK in NCI-H358 cells; assay type: cell-based, human; settings: Homo sapiens, NCI-H358; H358 KRAS G12C; read-out: pERK EC50
Procedure, shortened: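 Compounds are dosed as ten 3-fold dilutions from a 10 mM DMSO stock, in duplicate, and left on cells for 4 h at 37 °C, 5% CO2. Phospho-ERK1/2 is then quantified by AlphaLISA SureFire Ultra or In-Cell Western, and IC50 is derived from a 4-parameter sigmoid against log concentration.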

KRAS WT = KRAS WT (Homo sapiens (Human), UniProt P01116+P62937); assay: Ras-Raf (BRAF RBD) disruption / FRET / MOA assay, KRAS WT; assay type: biochemical; settings: read-out: IC50* KRAS WT FRET data
Chain of KRAS WT (P01116-2 other isoform, or with tags, fused parts or gaps): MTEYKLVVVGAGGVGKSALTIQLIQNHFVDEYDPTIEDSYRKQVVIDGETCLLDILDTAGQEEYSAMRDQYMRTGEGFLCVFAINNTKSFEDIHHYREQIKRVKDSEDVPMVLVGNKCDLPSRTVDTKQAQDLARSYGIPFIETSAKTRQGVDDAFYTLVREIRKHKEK
Chain of KRAS WT (P62937 whole entry): as the sequence (P62937 whole entry) above
Procedure, shortened: as §1

NCI-H358 (K-Ras G12C) = assay: CellTiter-Glo cell viability assay, NCI-H358; assay type: cell-based, human; settings: Homo sapiens, NCI-H358, 120 h, class symbols
Procedure, shortened: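 Luminescent viability readout on day 5 after direct compound addition to plated cells; plates sat ~30 min at room temperature before reading. Values expressed as percent of mean DMSO signal, curves fit with a four-parameter logistic model.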

KRAS G13D = KRAS G13D (Homo sapiens (Human), UniProt P01116+P62937, G13D); assay: Ras-Raf (BRAF RBD) disruption / FRET / MOA assay, KRAS G13D; assay type: biochemical; settings: read-out: IC50* KRAS G13D FRET data
Chain of KRAS G13D (P01116-2 other isoform, or with tags, fused parts or gaps G13D): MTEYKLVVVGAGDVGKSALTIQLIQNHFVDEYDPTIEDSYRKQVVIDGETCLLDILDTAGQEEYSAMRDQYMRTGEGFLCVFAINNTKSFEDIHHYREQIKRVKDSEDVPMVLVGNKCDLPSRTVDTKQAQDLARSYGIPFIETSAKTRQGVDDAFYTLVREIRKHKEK
Chain of KRAS G13D (P62937 whole entry): as the sequence (P62937 whole entry) above
Procedure, shortened: as §1

[2] = NCI-H358, 5-day treatment, read-out: Additional H358 Cell Viability assay data (K-Ras G12C, IC50)

Chain of KRAS G12S (P01116-2 other isoform, or with tags, fused parts or gaps G12S): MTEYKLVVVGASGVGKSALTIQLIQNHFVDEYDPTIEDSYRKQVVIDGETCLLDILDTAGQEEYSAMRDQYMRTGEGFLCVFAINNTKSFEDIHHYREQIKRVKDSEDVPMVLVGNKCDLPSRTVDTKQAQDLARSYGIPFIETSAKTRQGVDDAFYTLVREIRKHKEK
Chain of KRAS G12S (P62937 whole entry): as the sequence (P62937 whole entry) above

Row | IC50 (KRAS G12S) [µM] | IC50 (K-Ras G13C) [µM] | IC50 (K-Ras G12C) [µM] | IC50 (KRAS G12V) [µM] | IC50 (KRAS G12D) [µM] | IC50 (NRAS G12C) [µM] | EC50 [1] [µM] | IC50 (KRAS WT) [µM] | IC50 (NCI-H358 (K-Ras G12C); [2]) [µM] | IC50 (KRAS G13D) [µM] | Structure (SMILES) | IC50 (NCI-H358 (K-Ras G12C); read-out: Additional H358 Cell Viability assay data (K-Ras G12C, IC50, uM), NCI-H358, 5-day treatment) [µM]
1 | 0.01 to 0.1 | 0.01 to 0.1 | < 0.01 | 0.01 to 0.1 | 0.1 to 1 | < 0.01 | < 5 | 0.1 to 1 | < 0.01 | 0.1 to 1 | CCn1c(-c2cccnc2[C@H](C)OC)c2c3cc(ccc31)-c1cc(O)cc(c1)C[C@H](NC(=O)[C@H](C(C)C)N(C)C(=O)[C@H]1CCN(C(=O)C#CCOC)C1)C(=O)N1CCC[C@H](N1)C(=O)OCC(C)(C)C2 [Example A266] | 
2 | > 10 | > 10 | 1 to 10 | > 10 | > 10 | 1 to 10 | < 5 | > 10 | 0.1 to 1 | > 10 | C=CC(=O)N1CC[C@H](C(=O)N(C)[C@H](C(=O)N[C@H]2Cc3cc(O)cc(c3)-c3ccc4c(c3)c(c(-c3cnccc3[C@@H](OC)C3CC3)n4CC)CC(C)(C)COC(=O)[C@@H]3CCCN(N3)C2=O)C(C)C)C1 [Example A274] | 
3 | 1 to 10 | 1 to 10 | 0.1 to 1 | 1 to 10 | 1 to 10 | 0.1 to 1 | < 5 | 1 to 10 | 0.01 to 0.1 | 1 to 10 | CCn1c(-c2cccnc2[C@H](C)OC)c2c3cc(ccc31)-c1csc(n1)C[C@H](NC(=O)[C@H](C(C)C)N(C)C(=O)[C@H]1CCC(C(=O)/C=C/CN(C)C)C1)C(=O)N1CCC[C@H](N1)C(=O)OCC(C)(C)C2 (some centres unmarked) [Example A282] | 
4 | 1 to 10 | 1 to 10 | < 0.01 | 1 to 10 | > 10 | 0.01 to 0.1 | < 5 | 1 to 10 | < 0.01 | > 10 | CCn1c(-c2cccnc2[C@H](C)OC)c2c3cc(ccc31)-c1cccc(c1)C[C@H](NC(=O)[C@H](C(C)C)N(C)C(=O)[C@H]1CCN(C(=O)C#C[C@]3(C)CCCN3C)C1)C(=O)N1CCC[C@H](N1)C(=O)OCC(C)(C)C2 [Example A317] | 

Further lines, the compound ahead of its results:

Row | Structure (SMILES) | IC50 (KRAS G12S) [µM] | IC50 (K-Ras G13C) [µM] | IC50 (K-Ras G12C) [µM] | IC50 (KRAS G12V) [µM] | IC50 (KRAS G12D) [µM] | IC50 (NRAS G12C) [µM] | EC50 [1] [µM] | IC50 (KRAS WT) [µM] | IC50 (NCI-H358 (K-Ras G12C); [2]) [µM] | IC50 (KRAS G13D) [µM] | IC50 (NCI-H358 (K-Ras G12C); read-out: Additional H358 Cell Viability assay data (K-Ras G12C, IC50, uM), NCI-H358, 5-day treatment) [µM]
5 | C=CC(=O)N1CC[C@H](C(=O)N(C)[C@H](C(=O)N[C@@H]2C(=O)N3CCC[C@H](N3)C(=O)OCC(C)(C)Cc3c(-c4cncnc4)n(CC)c4ccc(cc34)-c3cccc(c3)[C@H]2O)C(C)C)C1 [Example A272] | > 10 | > 10 | 1 to 10 | > 10 | > 10 | > 10 | < 5 | > 10 | > 1 | > 10 | 
6 | C=CC(=O)N1CCC2(CCN([C@H](C(=O)N[C@H]3Cc4cc(O)cc(c4)-c4ccc5c(c4)c(c(-c4cccnc4[C@H](C)OC)n5CC)CC(C)(C)COC(=O)[C@@H]4CCCN(N4)C3=O)C(C)C)C2=O)C1 (some centres unmarked) [Example A295] | 0.01 to 0.1 | 0.01 to 0.1 | 0.01 to 0.1 | 0.01 to 0.1 | 0.1 to 1 | 0.01 to 0.1 | < 5 | 0.01 to 0.1 | < 0.01 | 0.1 to 1 | 
7 | C=CS(=O)(=O)N1CCC2(CCN([C@H](C(=O)N[C@H]3Cc4cc(O)cc(c4)-c4ccc5c(c4)c(c(-c4cccnc4[C@H](C)OC)n5CC)CC(C)(C)COC(=O)[C@@H]4CCCN(N4)C3=O)C(C)C)C2=O)C1 (some centres unmarked) [Example A298] | 0.01 to 0.1 | < 0.01 | < 0.01 | 0.01 to 0.1 | 0.1 to 1 | < 0.01 | < 5 | 0.01 to 0.1 | < 0.01 | 0.01 to 0.1 | 
8 | C=CC(=O)N1C2CC1CN(C(=O)N(C)[C@H](C(=O)N[C@H]1Cc3nc(cs3)-c3ccc4c(c3)c(c(-c3cccnc3[C@H](C)OC)n4CC)CC(C)(C)COC(=O)[C@@H]3CCCN(N3)C1=O)C(C)C)C2 [Example A408] | 0.1 to 1 | 0.1 to 1 | 0.1 to 1 | 0.1 to 1 | 1 to 10 | 0.1 to 1 | < 5 | 0.1 to 1 |  | 1 to 10 | 0.01 to 0.1
